Reference: US10414811B2, “Protease-resistant lipidated GLP-1 analogs” (MEDIMMUNE LIMITED, priority 2015, dated 2019)
Like-named read-outs stand apart in the source and are kept apart here. Numbered stars: 1 amine (or outer) side, 2 acyl side, 3 side chain; on linkers, the order of the positions; unused ones are H or OH. Square brackets hold non-standard residues; d marks the D form. Side chains are listed from the residue outwards. Peptide text beside a SMILES is read from it. * marks the point of attachment. γGlu = O=C(O)[C@H](CCC(=O)[*:2])N[*:1]; αMeF = C[C@](N)(Cc1ccccc1)C(=O)O; αMeK = C[C@](N)(CCCCN)C(=O)O; Lauroyl = CCCCCCCCCCCC(=O)*; αMeS = C[C@](N)(CO)C(=O)O; AEEA = NCCOCCOCC(=O)O; Aib = CC(C)(N)C(=O)O

How the values were obtained:
Format in all cases: cell-based
[1] = target: T1, human glucagon receptor (GCGR) (Homo sapiens, UniProt P47871); experiment: cAMP assay, human GCGR cells
T1 construct: expressed in transfected cells
Description: (§1) Sample dilutions are made in duplicate.
(§2) A frozen cryo-vial of cells expressing the receptor of interest is thawed rapidly in a water-bath, transferred to pre-warmed assay buffer and spun at 240×g for 5 minutes. Cells are re-suspended in assay buffer at a batch-dependent optimized concentration (e.g. hGCGR cells at 2×10^5 cells/ml, hGLP-1R and hGIPR cells at 1×10^5 cells/ml).
(§3) To this, 5 μL cell suspension is added and the plates incubated at room temperature for 30 minutes.
(§4) cAMP levels are measured using a commercially available cAMP dynamic 2 HTRF kit (Cisbio, Cat #62AM4PEJ), following the two step protocol as per manufacturer's recommendations. In brief; anti-cAMP cryptate (donor fluorophore) and cAMP-d2 (acceptor fluorophore) are made up separately by diluting each 1/20 in conjugate & lysis buffer provided in the kit. 5 μL anti-cAMP cryptate is added to wells of the assay plate, and 5 μL cAMP-d2 is added to wells except non-specific binding (NSB) wells, to which conjugate and lysis buffer are added. […] EC50 values of the synthetic peptides determined in cAMP assays are then determined.
(§5) Data is transformed to % Delta F as described in the manufacturer's guidelines and analyzed by 4-parameter logistic fit to determine EC50 values. […] To compare the balance of activities at the GLP-1R and GCGR between different peptides and across different conditions, these can be correlated, where the EC50's are related to those of comparator peptides.

[2] = target: T2, human glucose-dependent insulinotropic peptide receptor (GIPR) (Homo sapiens, UniProt P48546); experiment: cAMP assay, human GIPR cells
T2 construct: expressed in transfected cells
T2 sequence (P48546 22-466): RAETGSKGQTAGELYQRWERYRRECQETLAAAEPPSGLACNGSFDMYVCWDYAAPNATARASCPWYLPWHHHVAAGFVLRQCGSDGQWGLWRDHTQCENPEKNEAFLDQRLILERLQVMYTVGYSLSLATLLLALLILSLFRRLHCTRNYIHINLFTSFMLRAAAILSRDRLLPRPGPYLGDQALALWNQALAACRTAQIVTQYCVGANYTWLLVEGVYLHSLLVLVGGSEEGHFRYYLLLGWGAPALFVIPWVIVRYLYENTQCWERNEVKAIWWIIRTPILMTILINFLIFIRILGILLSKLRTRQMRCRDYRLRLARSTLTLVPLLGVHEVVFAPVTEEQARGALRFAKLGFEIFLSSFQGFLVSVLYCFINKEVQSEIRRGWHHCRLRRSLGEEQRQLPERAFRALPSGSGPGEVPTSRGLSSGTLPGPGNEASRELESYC
Description: as §1, §2, §3, §4, §5

[3] = target: T3, human GLP-1 receptor (GLP-1R) (Homo sapiens, UniProt P43220); experiment: cAMP assay, human GLP-1R cells; settings: bis-lipidated peptides
T3 construct: expressed in transfected cells
Description: as §1, §2, §3, §4, §5

[4] = cAMP assay, first determination (n1), read-out: Primary assay EC50 Gluc-R (n1)
[5] = cAMP assay, second determination (n2), read-out: Primary assay EC50 Gluc-R (n2)
[6] = cAMP assay, first determination (n1), read-out: Primary assay EC50 GIP-R (n1)
[7] = cAMP assay, second determination (n2), read-out: Primary assay EC50 GIP-R (n2)
[8] = mean of n1 and n2, read-out: Primary assay EC50 Mean pM GLP-1R
[9] = replicate n1, read-out: Primary assay EC50 GLP-1R n1
[10] = replicate n2, read-out: Primary assay EC50 GLP-1R n2

T1 sequence (P47871 26-477): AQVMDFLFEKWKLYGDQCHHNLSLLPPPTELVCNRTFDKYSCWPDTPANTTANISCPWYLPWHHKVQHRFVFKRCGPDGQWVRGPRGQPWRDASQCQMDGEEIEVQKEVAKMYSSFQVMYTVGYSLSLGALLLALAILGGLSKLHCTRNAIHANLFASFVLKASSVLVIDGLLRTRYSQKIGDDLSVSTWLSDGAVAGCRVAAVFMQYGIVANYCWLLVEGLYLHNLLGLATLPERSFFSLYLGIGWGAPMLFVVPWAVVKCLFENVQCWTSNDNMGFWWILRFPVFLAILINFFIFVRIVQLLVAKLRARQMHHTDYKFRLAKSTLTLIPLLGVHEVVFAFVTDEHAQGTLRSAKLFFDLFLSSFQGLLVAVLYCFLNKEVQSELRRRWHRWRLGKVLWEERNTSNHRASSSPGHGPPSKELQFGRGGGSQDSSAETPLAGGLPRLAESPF
T3 sequence (P43220 24-463): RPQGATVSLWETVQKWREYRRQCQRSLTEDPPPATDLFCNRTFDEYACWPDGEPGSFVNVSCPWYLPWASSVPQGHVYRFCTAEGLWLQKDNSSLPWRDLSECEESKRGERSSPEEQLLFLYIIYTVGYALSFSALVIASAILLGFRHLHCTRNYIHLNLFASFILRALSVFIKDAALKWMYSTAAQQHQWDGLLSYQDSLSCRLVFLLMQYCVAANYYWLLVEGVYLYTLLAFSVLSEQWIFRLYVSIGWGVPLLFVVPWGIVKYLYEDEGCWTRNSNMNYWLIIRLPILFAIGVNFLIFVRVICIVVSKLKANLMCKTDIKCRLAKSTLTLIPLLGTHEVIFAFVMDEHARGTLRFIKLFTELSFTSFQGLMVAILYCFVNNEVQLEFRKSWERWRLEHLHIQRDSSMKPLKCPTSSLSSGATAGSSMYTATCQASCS

EC50 [1, 4] | EC50 [1, 5] | EC50 [2, 6] | EC50 [2, 7] | EC50 ([1]; tris-lipidated peptides, first replicate, read-out: Primary assay EC50 Gluc-R (n1)) | EC50 ([2]; tris-lipidated peptides, first replicate, read-out: Primary assay EC50 GIP-R (n1)) | EC50 [3, 8] | EC50 [3, 9] | EC50 [3, 10] | Structure (SMILES)
– | – | – | – | 19.9 nM | 19.9 nM | – | – | – | CCCCCCCCCCCC(=O)N[C@@H](CCC(=O)NCCOCCOCC(=O)NCCOCCOCC(=O)NCCCC[C@H](NC(=O)CNC(=O)[C@H](CCC(=O)O)NC(=O)[C@H](CC(C)C)NC(=O)[C@H](Cc1ccc(O)cc1)NC(=O)[C@H](CO)NC(=O)[C@H](CO)NC(=O)[C@H](CCCCNC(=O)COCCOCCNC(=O)COCCOCCNC(=O)CC[C@H](NC(=O)CCCCCCCCCCC)C(=O)O)NC(=O)[C@H](CC(=O)O)NC(=O)[C@H](CO)NC(=O)[C@@H](NC(=O)[C@](C)(Cc1ccccc1)NC(=O)[C@H](CO)NC(=O)CNC(=O)[C@H](CCC(=O)O)NC(=O)C(C)(C)NC(=O)[C@@H](N)Cc1c[nH]cn1)[C@@H](C)O)C(=O)N[C@@H](C)C(=O)N[C@@H](C)C(=O)N[C@@](C)(CCCCN)C(=O)N[C@@H](CCC(=O)O)C(=O)N[C@@H](Cc1ccccc1)C(=O)N[C@H](C(=O)N[C@@H](C)C(=O)N[C@@H](Cc1ccccc1)C(=O)N[C@@H](CCCCNC(=O)COCCOCCNC(=O)COCCOCCNC(=O)CC[C@H](NC(=O)CCCCCCCCCCC)C(=O)O)C(=O)N[C@H](C(=O)N[C@@H](CCC(=O)O)C(=O)NCC(=O)NCC(N)=O)C(C)C)[C@@H](C)CC)C(=O)O [compound 472] (H-H[Aib]EGS[αMeF]TSDK([AEEA-AEEA-γGlu-Lauroyl])SSYLEGK([AEEA-AEEA-γGlu-Lauroyl])AA[αMeK]EFIAFK([AEEA-AEEA-γGlu-Lauroyl])VEGG-NH2; N-terminus assumed)
– | – | – | – | – | – | 92.3 pM | 59.6 pM | 125 pM | CCCCCCCCCCCC(=O)N[C@@H](CCC(=O)NCCOCCOCC(=O)NCCOCCOCC(=O)NCCCC[C@H](NC(=O)[C@H](CC(=O)O)NC(=O)[C@H](CO)NC(=O)[C@@H](NC(=O)[C@](C)(Cc1ccccc1)NC(=O)[C@H](CO)NC(=O)CNC(=O)[C@H](CCC(=O)O)NC(=O)C(C)(C)NC(=O)[C@@H](N)Cc1c[nH]cn1)[C@@H](C)O)C(=O)N[C@@H](CO)C(=O)N[C@@H](CO)C(=O)N[C@@H](Cc1ccc(O)cc1)C(=O)N[C@@H](CC(C)C)C(=O)N[C@@H](CCC(=O)O)C(=O)NCC(=O)N[C@@H](CCC(=O)O)C(=O)N[C@@H](C)C(=O)N[C@@H](C)C(=O)N[C@@](C)(CCCCN)C(=O)N[C@@H](CCC(=O)O)C(=O)N[C@@H](Cc1ccccc1)C(=O)N[C@H](C(=O)N[C@@H](C)C(=O)N[C@@H](Cc1c[nH]c2ccccc12)C(=O)N[C@@H](CCCCNC(=O)COCCOCCNC(=O)COCCOCCNC(=O)CC[C@H](NC(=O)CCCCCCCCCCC)C(=O)O)C(=O)N[C@H](C(=O)N[C@@H](CCC(=O)O)C(=O)NCC(=O)NCC(N)=O)C(C)C)[C@@H](C)CC)C(=O)O [compound 258] (H-H[Aib]EGS[αMeF]TSDK([AEEA-AEEA-γGlu-Lauroyl])SSYLEGEAA[αMeK]EFIAWK([AEEA-AEEA-γGlu-Lauroyl])VEGG-NH2; N-terminus assumed)

Further lines, the compound ahead of its results:

Structure (SMILES) | EC50 [1, 4] | EC50 [1, 5] | EC50 [2, 6] | EC50 [2, 7] | EC50 ([1]; tris-lipidated peptides, first replicate, read-out: Primary assay EC50 Gluc-R (n1)) | EC50 ([2]; tris-lipidated peptides, first replicate, read-out: Primary assay EC50 GIP-R (n1)) | EC50 [3, 8] | EC50 [3, 9] | EC50 [3, 10]
CC(C)[C@H](NC(=O)[C@H](CCC(=O)O)NC(=O)[C@H](CO)NC(=O)[C@H](CO)NC(=O)[C@](C)(Cc1ccccc1)NC(=O)[C@H](CO)NC(=O)CNC(=O)[C@H](CCC(=O)O)NC(=O)C(C)(C)NC(=O)[C@@H](N)Cc1c[nH]cn1)C(=O)N[C@@H](CO)C(=O)N[C@@H](CO)C(=O)N[C@@](C)(Cc1ccccc1)C(=O)N[C@H](C(=O)N[C@@H](CCC(=O)O)C(=O)NCC(=O)N[C@@H](CCC(=O)O)C(=O)N[C@@H](C)C(=O)N[C@@H](C)C(=O)N[C@@](C)(CCCCN)C(=O)N[C@@H](CCC(=O)O)C(=O)N[C@@](C)(Cc1ccccc1)C(=O)N[C@H](C(=O)N[C@@H](C)C(=O)N[C@@](C)(Cc1ccccc1)C(=O)N[C@H](C(=O)N[C@H](C(=O)N[C@@](C)(CCCCN)C(=O)NCC(=O)NCC(N)=O)C(C)C)C(C)C)C(C)C)C(C)C [compound 12] (H-H[Aib]EGS[αMeF]SSEVSS[αMeF]VEGEAA[αMeK]E[αMeF]VA[αMeF]VV[αMeK]GG-NH2) | 10 nM | 13 nM | 45 nM | 45 nM | – | – | – | – | –
CC[C@H](C)[C@H](NC(=O)[C@](C)(Cc1ccccc1)NC(=O)[C@H](CCC(=O)O)NC(=O)[C@](C)(CCCCN)NC(=O)[C@H](C)NC(=O)[C@H](C)NC(=O)[C@H](CCC(=O)O)NC(=O)CNC(=O)[C@H](CCC(=O)O)NC(=O)[C@H](CC(C)C)NC(=O)[C@](C)(Cc1ccccc1)NC(=O)[C@H](CO)NC(=O)[C@](C)(CO)NC(=O)[C@@H](NC(=O)[C@H](CC(=O)O)NC(=O)[C@H](CCC(=O)O)NC(=O)[C@@H](NC(=O)[C@](C)(Cc1ccccc1)NC(=O)[C@H](CO)NC(=O)CNC(=O)[C@H](CCC(=O)O)NC(=O)C(C)(C)NC(=O)[C@@H](N)Cc1c[nH]cn1)[C@@H](C)O)C(C)C)C(=O)N[C@@H](C)C(=O)N[C@@](C)(Cc1ccccc1)C(=O)N[C@H](C(=O)N[C@H](C(=O)N[C@@](C)(CCCCN)C(=O)NCC(=O)NCC(N)=O)C(C)C)C(C)C [compound 28] (H-H[Aib]EGS[αMeF]TEDV[αMeS]S[αMeF]LEGEAA[αMeK]E[αMeF]IA[αMeF]VV[αMeK]GG-NH2) | ≥ 100 nM | ≥ 100 nM | ≥ 100 nM | ≥ 100 nM | – | – | – | – | –
CC[C@H](C)[C@H](NC(=O)[C@](C)(Cc1ccccc1)NC(=O)[C@H](CCC(=O)O)NC(=O)[C@H](CCCCNC(=O)CC[C@H](NC(=O)CC[C@H](NC(=O)CCCCCCCCCCCCCCCCC(=O)O)C(=O)O)C(=O)O)NC(=O)[C@H](C)NC(=O)[C@H](C)NC(=O)[C@H](CCC(=O)O)NC(=O)CNC(=O)[C@H](CCC(=O)O)NC(=O)[C@H](CC(C)C)NC(=O)[C@](C)(Cc1ccccc1)NC(=O)[C@H](CO)NC(=O)[C@](C)(CO)NC(=O)[C@@H](NC(=O)[C@H](CC(=O)O)NC(=O)[C@H](CO)NC(=O)[C@@H](NC(=O)[C@](C)(Cc1ccccc1)NC(=O)[C@H](CO)NC(=O)CNC(=O)[C@H](CCC(=O)O)NC(=O)C(C)(C)NC(=O)[C@@H](N)Cc1c[nH]cn1)[C@@H](C)O)C(C)C)C(=O)N[C@@H](C)C(=O)N[C@@](C)(Cc1ccccc1)C(=O)N[C@H](C(=O)N[C@H](C(=O)N[C@@](C)(CCCCN)C(=O)NCC(=O)NCC(N)=O)C(C)C)C(C)C [compound 156] | ≥ 27 nM | ≥ 27 nM | ≥ 27 nM | ≥ 27 nM | – | – | – | – | –
CCCCCCCCCCCC(=O)N[C@@H](CCC(=O)NCCOCCOCC(=O)NCCOCCOCC(=O)NCCCC[C@H](NC(=O)[C@H](CC(=O)O)NC(=O)[C@H](CO)NC(=O)[C@@H](NC(=O)[C@](C)(Cc1ccccc1)NC(=O)[C@H](CO)NC(=O)CNC(=O)[C@H](CCC(=O)O)NC(=O)C(C)(C)NC(=O)[C@@H](N)Cc1c[nH]cn1)[C@@H](C)O)C(=O)N[C@@H](CO)C(=O)N[C@@H](CO)C(=O)N[C@@H](Cc1ccc(O)cc1)C(=O)N[C@@H](CC(C)C)C(=O)N[C@@H](CCC(=O)O)C(=O)NCC(=O)N[C@@H](CCC(=O)O)C(=O)N[C@@H](C)C(=O)N[C@@H](C)C(=O)N[C@@](C)(CCCCN)C(=O)N[C@@H](CCC(=O)O)C(=O)N[C@@H](Cc1ccccc1)C(=O)N[C@H](C(=O)N[C@@H](CCCCNC(=O)COCCOCCNC(=O)COCCOCCNC(=O)CC[C@H](NC(=O)CCCCCCCCCCC)C(=O)O)C(=O)N[C@@H](Cc1c[nH]c2ccccc12)C(=O)N[C@H](C(=O)N[C@H](C(=O)N[C@@H](CCC(=O)O)C(=O)NCC(=O)NCC(N)=O)C(C)C)C(C)C)[C@@H](C)CC)C(=O)O [compound 256] (H-H[Aib]EGS[αMeF]TSDK([AEEA-AEEA-γGlu-Lauroyl])SSYLEGEAA[αMeK]EFIK([AEEA-AEEA-γGlu-Lauroyl])WVVEGG-NH2) | – | – | – | – | – | – | 7.5 pM | 9.46 pM | 5.57 pM
